From patent publication US4795748A, “Antibacterial 7-oxo-4-thia-1-azabicyclo[3,2,0]hept-2-ene derivatives” (Hoechst UK Limited, priority 1984, dated 1989) come the findings set out here.

Converted amounts (≈) assume the structure as drawn.

What all share (format): cell-based
The subject of one test is Str. pyogenes 77A. Kind of test: agar dilution test, MIC, Str. pyogenes 77A. The settings on record: Streptococcus pyogenes, Mueller Hinton agar, 16 to 18 hours, 37° C., read-out: Minimum Inhibitory Concentration. The procedure:
(§1) The antimicrobial activity was determined by measuring the Minimum Inhibitory Concentration (MIC). The MIC of the compounds was determined by a standard test, the "agar dilution test" according to Lorian (Antibioticsin Laboratory Medicine, Williams and Wilkins, Baltimore/London 1980) as follows:
(§2) A two-fold decreasing concentration series of each compound was prepared in Petri dishes containing 15 ml of Mueller Hinton agar (Difco). One Petri dish containing only the Mueller Hinton agar served as control for bacterial growth. Each Petri dish was inoculated with a multi-point inoculator (Denley), which transfered 0.6 μl of a 1:100 diluted 18 hours culture of the appropriate test bacterium. After 16 to 18 hours of incubation at 37° C., the Petri dishes were examined for growth of bacteria. The lowest concentration of the compound which causes complete inhibition of growth is taken as the MIC.

The test system of a further test is Str. pyogenes 308 A. Kind of test: agar dilution test, MIC, Str. pyogenes 308 A. The settings on record: Streptococcus pyogenes, Mueller Hinton agar, 16 to 18 hours, 37° C., read-out: Minimum Inhibitory Concentration. The procedure:
as §1, §2

The subject of another test is Str. faecium D. Kind of test: agar dilution test, MIC, Str. faecium D. The settings on record: Enterococcus faecium, Mueller Hinton agar, 16 to 18 hours, 37° C., read-out: Minimum Inhibitory Concentration. The procedure: as §1, §2
The next test has as its system Staph. aureus SG 511. Kind of test: agar dilution test, MIC, Staph. aureus SG 511. The settings on record: Staphylococcus aureus, SG511, Mueller Hinton agar, 16 to 18 hours, 37° C., read-out: Minimum Inhibitory Concentration. The method, then: as §1, §2
The subject of the next test is Staph. aureus 285. The test is described as follows: agar dilution test, MIC, Staph. aureus 285. To be noted: Staphylococcus aureus, Mueller Hinton agar, 16 to 18 hours, 37° C., read-out: Minimum Inhibitory Concentration. The procedure:
as §1, §2

The test system of a further test is Staph. aureus 503. Kind of test: agar dilution test, MIC, Staph. aureus 503. To be noted: Staphylococcus aureus, Mueller Hinton agar, 16 to 18 hours, 37° C., read-out: Minimum Inhibitory Concentration. The method, then: as §1, §2
The subject of the next test is Bac. subtilis ATCC 6633. Kind of test: agar dilution test, MIC, Bac. subtilis ATCC 6633. To be noted: Bacillus subtilis, ATCC6633, Mueller Hinton agar, 16 to 18 hours, 37° C., read-out: Minimum Inhibitory Concentration. The method, then: as §1, §2
For a further test, the system named is E. coli 055. Kind of test: agar dilution test, MIC, E. coli 055. To be noted: Escherichia coli, Mueller Hinton agar, 16 to 18 hours, 37° C., read-out: Minimum Inhibitory Concentration. The method, then: as §1, §2
The test system of another test is E. coli DC2. The test is described as follows: agar dilution test, MIC, E. coli DC2. To be noted: Escherichia coli, Mueller Hinton agar, 16 to 18 hours, 37° C., read-out: Minimum Inhibitory Concentration. The method, then: as §1, §2
The test system of another test is E. coli TEM. The test is described as follows: agar dilution test, MIC, E. coli TEM. The settings on record: Escherichia coli, 18 h, read-out: Minimum Inhibitory Concentration. The procedure: as §1, §2
The next test has as its system E. coli 1507 E. Kind of test: agar dilution test, MIC, E. coli 1507 E. The settings on record: Escherichia coli, Mueller Hinton agar, 16 to 18 hours, 37° C., read-out: Minimum Inhibitory Concentration. The procedure:
as §1, §2

Another test relates to Kl. aerog. 1082 E. The test is described as follows: agar dilution test, MIC, Kl. aerog. 1082 E. To be noted: Mueller Hinton agar, 16 to 18 hours, 37° C., read-out: Minimum Inhibitory Concentration. The method, then: as §1, §2
Another test relates to Kl. aerog. 1522 E. The test is described as follows: agar dilution test, MIC, Kl. aerog. 1522 E. The settings on record: Mueller Hinton agar, 16 to 18 hours, 37° C., read-out: Minimum Inhibitory Concentration. The procedure: as §1, §2
A further test has as its system Ent. cloacae 1321 E. The test is described as follows: agar dilution test, MIC, Ent. cloacae 1321 E. The settings on record: Enterobacter cloacae, Mueller Hinton agar, 16 to 18 hours, 37° C., read-out: Minimum Inhibitory Concentration. The method, then: as §1, §2
The next test deals with Salm. typhimurium MZ II. Kind of test: agar dilution test, MIC, Salm. typhimurium MZ II. To be noted: Salmonella enterica, Mueller Hinton agar, 16 to 18 hours, 37° C., read-out: Minimum Inhibitory Concentration. The procedure: as §1, §2
The test system of the next test is E. coli KN 126. Kind of test: agar dilution test, MIC, E. coli KN 126. To be noted: Escherichia coli, KN126, Mueller Hinton agar, 16 to 18 hours, 37° C., read-out: Minimum Inhibitory Concentration. The method, then: as §1, §2
Test [1] concerns a variety of microorganisms, particularly β-lactamase producing organisms. Kind of test: antibacterial activity compared with the corresponding unsubstituted 3-phenoxy compound. To be noted: against a variety of microorganisms. The procedure: as §1, §2

For the compound `C[C@@H](O)[C@H]1C(=O)N2C(C(=O)O)=C(Oc3ccc(C(N)=O)cc3)S[C@H]12` [Ra = 4-CONH2, 5R-3-(4-carbamoylphenoxy)-6S-(1R-hydroxyethyl)-7-oxo-4-thia-1-azabicyclo[3,2,0]hept-2-ene-2-carboxylate], the MIC in the test with Str. pyogenes 77A is 0.05 µg/mL (≈ 0.143 µM); in the test on Str. pyogenes 308 A, 0.025 µg/mL (≈ 0.0714 µM); with Str. faecium D, 6.25 µg/mL (≈ 17.8 µM); with Staph. aureus SG 511 it was 0.05 µg/mL (≈ 0.143 µM); in the test with Staph. aureus 285, 0.1 µg/mL (≈ 0.285 µM); in the test with Staph. aureus 503, 0.1 µg/mL (≈ 0.285 µM). Besides, the MIC in the test on Bac. subtilis ATCC 6633 turned out to be 0.05 µg/mL (≈ 0.143 µM); with E. coli 055, 0.19 µg/mL (≈ 0.542 µM); with E. coli DC2, 0.78 µg/mL (≈ 2.23 µM); in the test with E. coli TEM, 0.39 µg/mL (≈ 1.11 µM); with E. coli 1507 E it was 0.39 µg/mL (≈ 1.11 µM); in the test with Kl. aerog. 1082 E, 0.39 µg/mL (≈ 1.11 µM). Further, the MIC in the test with Kl. aerog. 1522 E was found to be 0.78 µg/mL (≈ 2.23 µM); in the test with Ent. cloacae 1321 E it was 0.78 µg/mL (≈ 2.23 µM); with Salm. typhimurium MZ II, 0.78 µg/mL (≈ 2.23 µM); in the test with E. coli KN 126 it was 0.39 µg/mL (≈ 1.11 µM). The “antibacterial activity versus the corresponding unsubstituted 3-phenoxy compound” value in [1] is listed as “greater antibacterial activity”.
